Some test systems named below: Enterococcus faecium VR; Enterococcus faecalis VR; Enterococcus faecalis; Enterococcus faecium; Staphylococcus aureus MR; Escherichia coli UB1005; Escherichia coli EC183; Candida albicans CA2761; Escherichia coli MC1061; Aeromonas sobria; Edwardsiella tarda.
What all share (experiment): ≥ marks a high value that may be exact or a test limit, other limits are often not marked, values filed in µg/mL are converted to µM
Assay [1] relates to Escherichia coli KCTC 1682.
For assay [2], the system named is Pseudomonas aeruginosa KCTC 1637.
The subject of assay [3] is Staphylococcus epidermidis KCTC 1917.
Assay [4] relates to Salmonella typhimurium KCTC 1926.
Assay [5] concerns Staphylococcus aureus KCTC 1621.
The test system of assay [6] is Bacillus subtilis KCTC 3068.
Assay [7] deals with Enterococcus faecalis PCM 2673.
The subject of assay [8] is Staphylococcus aureus ATCC 25923.
In assay [9] the test system is Candida glabrata ATCC 15126.
Assay [10] relates to Aspergillus niger ATCC 16404.
For assay [11], the system named is Staphylococcus aureus ATCC 9144.
Assay [12] has as its system Escherichia coli ATCC 23506.
Assay [13] relates to Streptococcus pneumoniae ATCC 49619.
In assay [14] the test system is Pseudomonas aeruginosa ATCC 9027.
The subject of assay [15] is Escherichia coli ATCC 25922.
In assay [16] the test system is Candida albicans ATCC 10231.
Assay [17] has as its system Klebsiella pneumoniae ATCC 700603.
In assay [18] the test system is Candida albicans CGMCC 2.2086.
The test system of assay [19] is Candida krusei CGMCC 2.1857.
In assay [20] the test system is Candida tropicalis CGMCC 2.1975.
Assay [21] deals with Bacillus subtilis CMCC 63501.
The test system of assay [22] is Salmonella enterica subsp. enterica serovar Typhimurium C77-31.
Assay [23] concerns Staphylococcus aureus ATCC 29213.
Assay [24] concerns Staphylococcus epidermidis ATCC 12228.
Assay [25] concerns Vibrio parahaemolyticus CGMCC 1.1615.
In assay [26] the test system is Micrococcus luteus CGMCC 1.0634.
For assay [27], the system named is Micrococcus luteus CGMCC 1.634.
Assay [28] concerns Staphylococcus epidermidis CGMCC 1.2429.
Assay [29] relates to Shigella flexneri CGMCC 1.1868.
Assay [30] has as its system Bacillus subtilis CGMCC 1.108.
Assay [31] deals with Candida albicans CGMCC 2.2411.
Assay [32] concerns Staphylococcus aureus CGMCC 1.363.
In assay [33] the test system is Corynebacterium glutamicum CGMCC 1.1886.
In assay [34] the test system is Vibrio harveyi CGMCC 1.1593.
Assay [35] has as its system Vibrio fluvialis CGMCC 1.1609.
In assay [36] the test system is Vibrio alginolyticus CGMCC 1.1833.
Assay [37] relates to Aeromonas hydrophila CGMCC 1.0927.
The subject of assay [38] is Pseudomonas fluorescens CGMCC 1.0032.

Values after ≈ are worked out from the molar mass of the structure shown.

On to `CC(C)C[C@H](NC(=O)[C@H](CC(C)C)NC(=O)[C@H](CS)NC(=O)[C@H](Cc1cnc[nH]1)NC(=O)[C@H](C)NC(=O)[C@H](C)N)C(=O)N[C@@H](CCCN=C(N)N)C(=O)NCC(=O)N[C@@H](CC(N)=O)C(=O)N[C@@H](CCCN=C(N)N)C(N)=O` [AAHCLLRGNR], for which the MIC came out at 30 µM with Enterococcus faecium VR; 15 µM in assay [1]; 30 µM against Enterococcus faecalis VR; 30 µM in assay [2]; 15 µM in assay [3]; 30 µM against Enterococcus faecalis. The MIC (with Enterococcus faecium; against Staphylococcus aureus MR; in assay [4]; in [5]; in assay [6]) was 30 µM each time.
With `CC[C@H](C)[C@H](NC(=O)CNC(=O)[C@H](CCCCN)NC(=O)[C@H](Cc1ccccc1)NC(=O)[C@H](CC(C)C)NC(=O)[C@H](CCCCN)NC(=O)[C@H](CCCCN)NC(=O)[C@H](C)NC(=O)[C@H](CCCCN)NC(=O)[C@H](CCCCN)NC(=O)[C@H](Cc1ccccc1)NC(=O)CNC(=O)[C@H](CCCCN)NC(=O)[C@H](C)NC(=O)[C@H](Cc1ccccc1)NC(=O)[C@@H](NC(=O)[C@H](CCCCN)NC(=O)[C@@H](NC(=O)[C@H](CC(C)C)NC(=O)[C@H](CCCCN)NC(=O)[C@@H](N)CCCCN)[C@@H](C)CC)C(C)C)C(=O)NCC(N)=O` [KKLIKVFAKGFKKAKKLFKGIG], the MIC in [7] was 25.8 µM (≈ 64 µg/mL); in assay [8] it was 51.7 µM (≈ 128 µg/mL); in [9], not below 51.7 µM; in [10], 12.9 µM (≈ 32 µg/mL); in assay [11], 25.8 µM (≈ 64 µg/mL); in [12] it was 0.807 µM (≈ 2 µg/mL). For the same compound, the MIC worked out at 1.61 µM (≈ 4 µg/mL) in assay [13]; 0.807 µM (≈ 2 µg/mL) in assay [14]; 3.23 µM (≈ 8 µg/mL) in assay [15]; 103 µM (≈ 256 µg/mL) in [16]; 0.101 µM (≈ 0.25 µg/mL) in [17].
In the case of `CC[C@H](C)[C@H](NC(=O)[C@H](Cc1c[nH]c2ccccc12)NC(=O)[C@H](CCCCN)NC(=O)[C@H](CC(C)C)NC(=O)[C@@H](NC(=O)[C@H](CCCCN)NC(=O)CNC(=O)[C@@H](NC(=O)[C@H](CCCCN)NC(=O)[C@H](CCCCN)NC(=O)[C@H](CC(C)C)NC(=O)[C@H](CCCN=C(N)N)NC(=O)[C@H](CCCCN)NC(=O)[C@H](CCCN=C(N)N)NC(=O)[C@@H](N)[C@@H](C)O)[C@@H](C)CC)C(C)C)C(N)=O` [TRKRLKKIGKVLKWI], the minimal inhibitory concentration (MIC) in assay [18] was not below 64 µM; in assay [8] it was 32 µM (≈ 59.7 µg/mL); with Escherichia coli UB1005, 4 µM (≈ 7.47 µg/mL); in assay [19] it was 8 µM (≈ 14.9 µg/mL); in assay [20] it was 2 µM (≈ 3.73 µg/mL); in the assay on Escherichia coli EC183, 2 µM (≈ 3.73 µg/mL). Also, the MIC was not below 128 µM against Candida albicans CA2761; 2 µM (≈ 3.73 µg/mL) in assay [21]; 8 µM (≈ 14.9 µg/mL) in assay [22]; 8 µM (≈ 14.9 µg/mL) in assay [15]; 32 µM (≈ 59.7 µg/mL) in assay [23]; 32 µM (≈ 59.7 µg/mL) in assay [24].
For `CC[C@H](C)[C@H](NC(=O)[C@H](CCCN=C(N)N)NC(=O)CNC(=O)[C@@H](N)C(C)C)C(=O)N[C@@H](Cc1cnc[nH]1)C(=O)N[C@@H](CCCN=C(N)N)C(=O)N[C@@H](Cc1cnc[nH]1)C(=O)N[C@@H](CC(C)C)C(=O)N[C@@H](CCCCN)C(=O)O` [VGRIHRHLK], the MIC in assay [25] was not below 48 µM; in the assay on Escherichia coli MC1061, not below 48 µM; in assay [26] it was not below 48 µM; in the assay with Aeromonas sobria, not below 48 µM; in assay [27], 8.49 µM (≈ 9.46 µg/mL); in assay [28], not below 48 µM. The MIC in assay [29] is not below 48 µM; in assay [30], not below 48 µM; in assay [31], not below 48 µM; in [32], 17 µM (≈ 18.9 µg/mL); in assay [33] it was 17 µM (≈ 18.9 µg/mL); in assay [34] it was not below 48 µM. Also, the MIC in assay [35] is not below 48 µM; in [36] it was not below 48 µM; in [37], not below 48 µM; against Edwardsiella tarda, not below 48 µM; in assay [38], 8.49 µM (≈ 9.46 µg/mL).

In general, MIC refers to the smallest concentration in the dilution series that meets the test's criterion for growth inhibition. Read a high MIC as a need for much substance.

These data come from DBAASP.
